Test results taken from the RepoRT retention time repository (doi:10.1016/j.foodchem.2021.129757).

Legend:
Conditions in all cases: stereoisomer not certain
[1] = RP, Phenomenex Luna Omega Polar C18, 100 × 2.1 mm, 1.6 µm, 40 °C, 0.5 mL/min, estimated dead time 0.44 min; A: water + 0.5% formic acid; B: acetonitrile + 0.5% formic acid; gradient (min/%B) 0/5 3/50 3.1/100 5/100 5.1/5 7/5
[2] = RP, 100 × 0.5 mm, 2.7 µm, 45 °C, 0.015 mL/min, estimated dead time 0.83 min; A: water + 0.9% formic acid; B: acetonitrile + 0.9% formic acid; gradient (min/%B) 0/1 0.5/1 4/95 4.5/1 5/1
[3] = RP, 150 × 2.1 mm, 2.6 µm, 40 °C, 0.35 mL/min, estimated dead time 0.94 min; A: water + 0.1% formic acid, pH 3; B: acetonitrile + 0.1% formic acid, pH 3; gradient (min/%B) 0/0 1/5 7/45 8.5/80 10.5/80 11/5 12/5
[4] = RP, Phenomenex Luna C18, 150 × 4.6 mm, 3 µm, 25 °C, 0.5 mL/min, estimated dead time 3.2 min; A: water + 0.1% formic acid, pH 3; B: acetonitrile + 0.1% formic acid, pH 3; gradient (min/%B) 0/0 30/30 35/40 50/80 52/80 60/0 65/0
[5] = RP, 50 × 0.5 mm, 2.7 µm, 35 °C, 0.01 mL/min, estimated dead time 0.62 min; A: water + 0.1% formic acid, pH 3; B: acetonitrile + 0.1% formic acid, pH 3; gradient (min/%B) 0/5 12/95 14/95 16/5
[6] = RP, Waters ACQUITY UPLC BEH Shield RP18, 150 × 2.1 mm, 1.7 µm, 40 °C, 0.4 mL/min, estimated dead time 0.83 min; A: water + 0.1% formic acid, pH 3; B: acetonitrile + 0.1% formic acid, pH 3; gradient (min/%B) 0/0 30/50 31/100 37/100 37.1/0
[7] = RP, 150 × 2.1 mm, 2.6 µm, 40 °C, 0.35 mL/min, estimated dead time 0.94 min; A: water + 0.1% formic acid, pH 3; B: acetonitrile + 0.1% formic acid, pH 3; gradient (min/%B) 0/0 1/0 12.5/100 14/100 14.2/0 15/0
[8] = RP, Agilent ZORBAX Eclipse XDB-C18, 100 × 2.1 mm, 1.8 µm, 50 °C, 0.4 mL/min, estimated dead time 0.55 min; A: water + 0.1% formic acid, pH 3; B: methanol + 0.1% formic acid, pH 3; gradient (min/%B) 0/2 10/100 14.5/100 14.51/2 16.5/2
[9] = RP, Agilent InfinityLab Poroshell 120 EC-C18, 100 × 3 mm, 2.7 µm, 25 °C, 0.4 mL/min, estimated dead time 1.1 min; A: water + 0.1% formic acid, pH 3; B: acetonitrile + 0.1% formic acid, pH 3; gradient (min/%B) 0/5 10/25 20/40 24/90 25/90 26/5 30/5
[10] = RP, Phenomenex Luna Omega Polar C18, 100 × 2.1 mm, 1.6 µm, 40 °C, 0.5 mL/min, estimated dead time 0.44 min; A: water + 0.1% formic acid + 10 mM ammonium formate; B: acetonitrile; gradient (min/%B) 0/5 8/20 10/100 12/100 12.1/5 14/5
[11] = Other, Phenomenex Kinetex PFP, 100 × 4.6 mm, 5 µm, 45 °C, 0.6 mL/min, estimated dead time 1.8 min; A: water + 0.1% trifluoroacetic acid, pH 2; B: methanol; gradient (min/%B) 0/40 20/72 21/40
[12] = RP, Waters ACQUITY UPLC HSS T3, 100 × 2.1 mm, 1.8 µm, 30 °C, 0.4 mL/min, estimated dead time 0.55 min; A: water + 0.1% formic acid, pH 3; B: acetonitrile + 0.1% formic acid, pH 3; gradient (min/%B) 0/0 2/0 15/100 22/100 22.1/0 26/0
[13] = RP, Waters ACQUITY UPLC BEH C18, 100 × 2.1 mm, 1.7 µm, 65 °C, 0.4 mL/min, estimated dead time 0.55 min; A: water + 0.1% formic acid, pH 3; B: 80% acetonitrile + 20% acetone + 0.1% formic acid, pH 3; gradient (min/%B) 0/0 5/100 5.5/0 6/0
[14] = RP, Waters ACQUITY UPLC BEH Shield RP18, 100 × 2.1 mm, 1.7 µm, 30 °C, 0.6 mL/min, estimated dead time 0.37 min; A: water + 0.1% formic acid, pH 3; B: acetonitrile + 0.1% formic acid, pH 3; gradient (min/%B) 0/0 2/0 7/10 22/95 22.1/0 26/0
[15] = RP, Phenomenex Synergi Hydro-RP, 150 × 2 mm, 4 µm, 30 °C, 0.5 mL/min, estimated dead time 0.6 min; A: water + 0.1% formic acid, pH 3; B: acetonitrile + 0.1% formic acid, pH 3; gradient (min/%B) 0/5 1/5 35/45 40/100 45/100
[16] = RP, Phenomenex Synergi Hydro-RP, 250 × 2 mm, 4 µm, 25 °C, 0.2 mL/min, estimated dead time 2.5 min; A: water + 0.1% formic acid, pH 3; B: acetonitrile + 0.1% formic acid, pH 3; gradient (min/%B) 0/0.5 7/0.5 12/12.5 25/16.3 47/35 48/65 50/65 50.1/0.5
[17] = RP, Agilent ZORBAX RRHD Eclipse Plus C18, 50 × 2.1 mm, 1.8 µm, 30 °C, 0.4 mL/min, estimated dead time 0.28 min; A: water + 0.1% formic acid, pH 3; B: acetonitrile + 0.1% formic acid, pH 3; gradient (min/%B) 0/1 5/10 8/25 9.1/99 10/99 12/99
[18] = RP, Waters Atlantis T3, 100 × 2.1 mm, 3 µm, 40 °C, 0.3 mL/min, estimated dead time 0.73 min; A: water + 0.1% trifluoroacetic acid, pH 2; B: acetonitrile + 0.1% trifluoroacetic acid, pH 2; gradient (min/%B) 0/10 1/10 6/40 7/50 8/50 14/70 16/80 20/10 25/10
[19] = RP, Merck LiChrospher RP-18, 250 × 4 mm, 5 µm, 35 °C, 0.3 mL/min, estimated dead time 6.7 min; A: water + 0.5% formic acid; B: acetonitrile + 0.5% formic acid; gradient (min/%B) 0/5 10/5 30/15 45/20 65/20 95/54 110/63 115/5 135/5
[20] = RP, Agilent ZORBAX RRHD Eclipse Plus C18, 50 × 2.1 mm, 1.8 µm, 30 °C, 0.4 mL/min, estimated dead time 0.28 min; A: water + 0.1% formic acid, pH 3; B: acetonitrile + 0.1% formic acid, pH 3; gradient (min/%B) 0/1 5/10 8/25 9.1/99 10/99 12/1
[21] = RP, Phenomenex Kinetex EVO C18, 100 × 2.1 mm, 2.6 µm, 40 °C, 0.4 mL/min, estimated dead time 0.55 min; A: water + 0.2% formic acid; B: acetonitrile + 0.2% formic acid; gradient (min/%B) 0/5 0.5/5 7/95 8/95 8.5/5 12/5
[22] = RP, Waters ACQUITY UPLC HSS T3, 100 × 2.1 mm, 50 °C; A: water + 0.1% formic acid, pH 3; B: 30% methanol + 70% acetonitrile + 0.1% formic acid, pH 3; gradient (min/%B) 0/5 1/8 2/15 3/40 4/70 4.5/100 5/100 6.4/100 6.6/5 6.8/5 7/5

| SMILES | LC retention time [1] | LC retention time [2] | LC retention time [3] | LC retention time [4] | LC retention time [5] | LC retention time [6] | LC retention time [7] | LC retention time [8] | LC retention time [9] | LC retention time [10] | LC retention time [11] | LC retention time [12] | LC retention time [13] | LC retention time [14] | LC retention time [15] | LC retention time [17] | LC retention time [18] | LC retention time [19] | LC retention time [20] | other results |
| --- | --- | --- | --- | --- | --- | --- | --- | --- | --- | --- | --- | --- | --- | --- | --- | --- | --- | --- | --- | --- |
| O=c1c(-c2ccc(O)cc2)coc2cc(O)cc(O)c12 [Genistein] | 3.49 min | 3.17 min | 8.03 min | 41.5 min | 6.06 min | 22.9 min | 7.65 min | 6.56 min | 16.5 min | 9.62 min | 18 min | 11.5 min | 2.84 min | 16.1 min | 25.7 min |  |  |  |  |  |
| COc1ccc(C2CC(=O)c3c(O)cc(O)cc3O2)cc1O (stereo unspecified) [Hesperetin] | 3.57 min | 3.27 min | 8.21 min | 42.5 min | 6.17 min | 21.2 min | 7.8 min | 6.64 min | 17.4 min | 9.67 min |  | 11.7 min | 2.93 min | 15.5 min | 26.6 min | 9.29 min | 10.4 min |  |  | LC retention time [16]: 51.9 min |
| COc1cc(-c2oc3cc(O)cc(O)c3c(=O)c2O)ccc1O [Isorhamnetin] | 3.7 min | 3.24 min |  | 42.5 min | 4.51 min | 24 min |  | 7.05 min | 17.6 min | 9.84 min |  | 11.7 min |  | 16.4 min | 27.4 min | 9.29 min |  | 98.9 min | 9.19 min |  |
| CC1OC(OC2C(Oc3cc(O)c4c(c3)OC(c3ccc(O)cc3)CC4=O)OC(CO)C(O)C2O)C(O)C(O)C1O (stereo unspecified) [Naringin] |  | 2.56 min |  | 26.7 min | 4.65 min | 13 min |  | 5.22 min | 10.6 min | 8.96 min | 9.02 min | 9.46 min |  | 13 min | 17.3 min |  | 7.79 min |  |  |  |

Second part, led by results:

| LC retention time [1] | LC retention time [2] | LC retention time [3] | LC retention time [4] | LC retention time [5] | LC retention time [6] | LC retention time [7] | LC retention time [8] | LC retention time [9] | LC retention time [10] | LC retention time [11] | LC retention time [12] | LC retention time [13] | LC retention time [14] | LC retention time [15] | LC retention time [17] | LC retention time [18] | LC retention time [19] | LC retention time [20] | SMILES | other results |
| --- | --- | --- | --- | --- | --- | --- | --- | --- | --- | --- | --- | --- | --- | --- | --- | --- | --- | --- | --- | --- |
|  | 3.13 min | 7.9 min | 41.2 min | 6 min | 21.3 min | 7.51 min | 6.47 min | 16.7 min | 9.58 min |  | 11.4 min | 2.85 min | 15.6 min | 25.8 min | 9.3 min | 10 min | 94.8 min | 9.14 min | O=C(CCc1ccc(O)cc1)c1c(O)cc(O)cc1O [Phloretin] | LC retention time [16]: 50.6 min |
| 2.93 min | 2.82 min |  | 46.2 min |  | 25.5 min |  | 5.84 min | 12.6 min | 9.25 min | 14.7 min | 10.5 min |  | 19.4 min | 20.2 min | 8.12 min |  |  | 7.73 min | O=c1c(OS(=O)(=O)O)c(-c2ccc(O)c(O)c2)oc2cc(O)cc(O)c12 [Quercetin 3-O-sulfate] | LC retention time [21]: 6.76 min |
| 2.93 min | 2.82 min |  | 47.6 min |  |  |  |  | 12.9 min | 9.3 min | 14.9 min | 10.6 min |  | 19.5 min | 20.7 min |  |  |  |  | O=c1c(O)c(-c2ccc(OS(=O)(=O)O)c(O)c2)oc2cc(O)cc(O)c12 [Quercetin 4-O-sulfate] |  |
| 2.44 min | 2.71 min |  | 21.1 min | 3.51 min | 7.83 min |  | 4.06 min | 8.04 min | 5.38 min | 6.9 min | 9.32 min | 2.03 min | 10.1 min |  |  |  | 54.7 min |  | COc1cc(C=O)ccc1O [Vanillin] | LC retention time [22]: 3.46 min |
| 2.49 min | 2.44 min |  | 23 min | 4.6 min | 12 min |  | 4.86 min | 10.2 min | 8.28 min |  | 9.05 min |  | 12.6 min | 15.8 min |  | 7.34 min |  |  | CC1OC(OC2C(O)C(OCCc3ccc(O)c(O)c3)OC(CO)C2OC(=O)C=Cc2ccc(O)c(O)c2)C(O)C(O)C1O (stereo unspecified) [Verbascoside] | LC retention time [21]: 4.84 min |
